According to ChEMBL document CHEMBL1857833, “Screening and optimization of specific chemical series against human African Trypanosomiasis (HAT)”:
Converted amounts (≈) assume the structure as drawn.

How the values were obtained:
[1] = DNDI: Cytotoxicity against L929 mouse fibroblasts, 72 hour.; format: toxicity, cell-based; conditions: mouse, L929 mouse fibroblasts
[2] = system: Trypanosoma brucei; assay: DNDI: Inhibition of Human African Trypanosomiasis, SBRI 427, in vitro; format: functional, organism-based
[3] = Trypanosoma brucei, SBRI 427, read-out: IC50

Compound `COc1cccc(-c2nc(CNCCC3CCCN3C)c(C)o2)c1` (stereo not given) has an IC50 at 72 h [1] greater than 10 mg/L and an IC50 [2, 3] of 2.2 mg/L (≈ 6.68 µM).

`CCC(C)C(NCc1ccc(OC)c(OC)c1)c1nc(-c2ccccc2)c(N2CCCCC2)o1` (stereo not given) gave an IC50 at 72 h [1] greater than 10 mg/L and an IC50 [2, 3] greater than 5 mg/L.

For `COc1cccc(C(NCc2ccc(C)cc2)c2nc(Cc3ccccc3)c(N3CCOCC3)o2)c1` (stereo not given), the IC50 at 72 h [1] was greater than 10 mg/L and the IC50 [2, 3] was greater than 5 mg/L.

Work on `CCCCCC(C)NCc1coc(-c2ccc(OCCCC)c(C)c2)n1` (stereo not given) yielded an IC50 at 72 h [1] of 1.37 mg/L (≈ 3.82 µM) and an IC50 [2, 3] of 0.42 mg/L (≈ 1.17 µM).

Compound `CCCCc1ccc(-c2nc(CN[C@H](C)c3ccccc3)co2)cc1` has an IC50 at 72 h [1] of 3.32 mg/L (≈ 9.93 µM) and an IC50 [2, 3] of 2.98 mg/L (≈ 8.91 µM).

With `CCCCc1ccc(-c2nc(CNCc3ccncc3)co2)cc1` the IC50 at 72 h [1] was greater than 10 mg/L and the IC50 [2, 3] was greater than 5 mg/L.

`Fc1cccc(-c2cc3nc(-c4ccccc4)cc(NCCN4CCCCC4)n3n2)c1` showed an IC50 at 72 h [1] of 9.91 mg/L (≈ 23.8 µM) and an IC50 [2, 3] of 3.82 mg/L (≈ 9.19 µM).

For `COc1ccc(CNC(CC(C)C)c2nc(Cc3ccccc3)c(N3CCCCC3)o2)cc1OC` (stereo not given), the IC50 at 72 h [1] was greater than 10 mg/L and the IC50 [2, 3] was greater than 5 mg/L.

`Fc1cccc(-c2cc3nc(-c4ccccc4)cc(NCCN4CCCC4)n3n2)c1` showed an IC50 at 72 h [1] of 1.54 mg/L (≈ 3.84 µM) and an IC50 [2, 3] of 2.22 mg/L (≈ 5.53 µM).

`CCCCc1ccc(-c2nc(CN3CCN(C(=O)OC(C)(C)C)CC3)co2)cc1` gave an IC50 at 72 h [1] greater than 10 mg/L and an IC50 [2, 3] greater than 5 mg/L.

Compound `C[C@@H]1[C@H]2C[C@@H](C[C@H]1NCc1coc(-c3ccc(OC4CCCCC4)cc3)n1)C2(C)C` has an IC50 at 72 h [1] of 1.59 mg/L (≈ 3.89 µM) and an IC50 [2, 3] of 0.57 mg/L (≈ 1.4 µM).

In the case of `CCCCCC(C)NCc1coc(-c2ccc3c(c2)OCO3)n1` (stereo not given), the IC50 at 72 h [1] is reported as 10 mg/L (≈ 31.6 µM) and the IC50 [2, 3] is reported as 3.61 mg/L (≈ 11.4 µM).

Compound `Cc1ccc(/C(=N/O)NC2CCCCC2)c(Oc2cc(Cl)ccc2Cl)n1` has an IC50 at 72 h [1] greater than 10 mg/L, an IC50 [2] of 2.27 mg/L (≈ 5.76 µM) and an IC50 [2, 3] of 1.18 mg/L (≈ 2.99 µM).

Work on `Fc1ccc(-c2cc3nc(-c4ccccc4)cc(NCCCN4CCOCC4)n3n2)cc1` yielded an IC50 at 72 h [1] greater than 10 mg/L and an IC50 [2, 3] greater than 5 mg/L.

In the case of `Cc1cc(N2CCN(C(=O)OC(C)(C)C)CC2)n2nc(-c3cccc(F)c3)cc2n1`, the IC50 at 72 h [1] is reported as greater than 10 mg/L and the IC50 [2, 3] is reported as greater than 5 mg/L.

For `CC(C)c1ccc(Oc2ncccc2/C(=N\O)NC2CCCCC2)cc1`, the IC50 at 72 h [1] was 6.75 mg/L (≈ 19.1 µM) and the IC50 [2, 3] was 0.09 mg/L (≈ 0.255 µM).

Work on `c1ccc(Cc2nc(C(NCc3ccc4c(c3)OCO4)C3CC3)oc2N2CCOCC2)cc1` (stereo not given) yielded an IC50 at 72 h [1] greater than 10 mg/L and an IC50 [2, 3] greater than 5 mg/L.

In the case of `c1ccc(-c2nc(C(NCCCn3ccnc3)C3CC3)oc2N2CCOCC2)cc1` (stereo not given), the IC50 at 72 h [1] is reported as greater than 10 mg/L and the IC50 [2, 3] is reported as greater than 5 mg/L.

Work on `COc1ccc(S(=O)(=O)NC2CCCCC2)cc1` yielded an IC50 at 72 h [1] greater than 10 mg/L and an IC50 [2, 3] greater than 5 mg/L.

Compound `CCc1cccc(NS(=O)(=O)c2ccc(OC)c(OC)c2)c1` has an IC50 at 72 h [1] greater than 10 mg/L and an IC50 [2, 3] greater than 5 mg/L.

`CCCCCCC/C(O)=C1/C(=O)CN(C)C1=O` gave an IC50 at 72 h [1] greater than 10 mg/L and an IC50 [2, 3] greater than 5 mg/L.

Work on `COc1ccccc1CNC(c1ccccc1)c1nc(-c2ccccc2)c(N2CCOCC2)o1` (stereo not given) yielded an IC50 at 72 h [1] greater than 10 mg/L and an IC50 [2, 3] greater than 5 mg/L.

For `CCCCCC(C)NCc1coc(-c2ccc([N+](=O)[O-])cc2)n1` (stereo not given), the IC50 at 72 h [1] was 7.08 mg/L (≈ 22.3 µM) and the IC50 [2, 3] was 4.99 mg/L (≈ 15.7 µM).

For `CCCCc1ccc(-c2nc(CNCCCN3CCOCC3)co2)cc1`, the IC50 at 72 h [1] was 2.08 mg/L (≈ 5.82 µM) and the IC50 [2, 3] was 0.34 mg/L (≈ 0.951 µM).

Work on `CCCCCC(C)NCc1coc(-c2ccc(OC(F)(F)C(F)F)cc2)n1` (stereo not given) yielded an IC50 at 72 h [1] of 4.3 mg/L (≈ 11.1 µM) and an IC50 [2, 3] of 1.42 mg/L (≈ 3.66 µM).

`CCCCCC(C)NCc1coc(-c2ccc(OC(F)F)cc2)n1` (stereo not given) showed an IC50 at 72 h [1] of 3.82 mg/L (≈ 11.3 µM) and an IC50 [2, 3] of 2.15 mg/L (≈ 6.35 µM).

`C#[N+]C(C(=O)N1CCOCC1)C(C)C` (stereo not given) gave an IC50 at 72 h [1] greater than 10 mg/L and an IC50 [2, 3] greater than 5 mg/L.

For `Cc1cc(NCCCN(C)C)n2nc(-c3cccc(F)c3)cc2n1`, the IC50 at 72 h [1] was greater than 10 mg/L and the IC50 [2, 3] was greater than 5 mg/L.

`Cc1cc(=O)n2nc(-c3cccc(F)c3)cc2[nH]1` showed an IC50 at 72 h [1] greater than 10 mg/L and an IC50 [2, 3] greater than 5 mg/L.

Compound `c1ccc(Cc2nc(C(NCc3ccco3)C3CC3)oc2N2CCOCC2)cc1` (stereo not given) has an IC50 at 72 h [1] greater than 10 mg/L and an IC50 [2, 3] greater than 5 mg/L.

For `N#Cc1nc(-c2ccccc2)oc1N`, the IC50 at 72 h [1] was greater than 10 mg/L and the IC50 [2, 3] was greater than 5 mg/L.

Work on `O=C1CCCN1CCCNc1cc(-c2ccccc2)nc2cc(-c3cccc(F)c3)nn12` yielded an IC50 at 72 h [1] greater than 10 mg/L and an IC50 [2, 3] greater than 5 mg/L.

Work on `Cc1cc(NC2CCN(C(=O)OC(C)(C)C)C2)n2nc(-c3cccc(F)c3)cc2n1` (stereo not given) yielded an IC50 at 72 h [1] greater than 10 mg/L and an IC50 [2, 3] greater than 5 mg/L.

`COc1ccc(/C(=N/O)Nc2cccc(C(C)(C)C)c2)cc1` gave an IC50 at 72 h [1] of 3.91 mg/L (≈ 13.1 µM).

In the case of `CCC(C)(C)N/C(=N\O)c1ccc(Oc2cccc3ccccc23)nc1`, the IC50 [2, 3] is reported as 0.86 mg/L (≈ 2.46 µM).

In the case of `O/N=C(\NCc1c(F)cccc1F)c1cccnc1Oc1ccccc1`, the IC50 [2, 3] is reported as 1.58 mg/L (≈ 4.45 µM).

`O/N=C(\NC1CCc2ccccc21)c1cccnc1Oc1ccc2ccccc2c1` (stereo not given) gave an IC50 [2, 3] of 1.47 mg/L (≈ 3.72 µM).

In the case of `O/N=C(/c1ccc(Oc2ccc(Cl)cc2)nc1)N1CCC2CCCCC2C1` (stereo not given), the IC50 [2, 3] is reported as 1.24 mg/L (≈ 3.21 µM).

Compound `O/N=C(\NC1CCCCC1)c1ccnc(Oc2ccc(F)c(F)c2)c1` has an IC50 [2, 3] greater than 5 mg/L.

`O/N=C(\NC1CCCCC1)c1ccc(Oc2c(F)c(F)cc(F)c2F)nc1` gave an IC50 [2, 3] of 4.06 mg/L (≈ 10.6 µM).

`Cc1ccccc1CN/C(=N\O)c1cccnc1Oc1cccc(C)c1C` gave an IC50 [2, 3] of 3.57 mg/L (≈ 9.88 µM).

In the case of `Cc1ccc(/C(=N/O)NCCN2CCCC2)c(Oc2ccc(F)cc2)n1`, the IC50 [2, 3] is reported as 37.5 mg/L (≈ 105 µM).

`COCC(C)N/C(=N\O)c1ccnc(Oc2ccc(SC)cc2)c1` (stereo not given) showed an IC50 [2, 3] of 0.45 mg/L (≈ 1.3 µM).

With `CCOc1ccccc1-c1nc(CNC(C)C2CCCCC2)co1` (stereo not given) the IC50 [2, 3] was 1.94 mg/L (≈ 5.91 µM).

`O/N=C(\NCC1CCCCC1)c1ccc(Oc2cc(Cl)ccc2Cl)nc1` gave an IC50 [2, 3] of 2.81 mg/L (≈ 7.13 µM).

`COc1ccc(-c2nc(CNC3CCN(Cc4ccccc4)CC3)co2)cc1` gave an IC50 [2, 3] of 2.92 mg/L (≈ 7.74 µM).

In the case of `O/N=C(\NC1CCCC1)c1ccnc(Oc2cccc(F)c2)c1`, the IC50 [2, 3] is reported as 2.27 mg/L (≈ 7.2 µM).

In the case of `O/N=C(\NC1CCCC1)c1ccc(Oc2c(F)c(F)cc(F)c2F)nc1`, the IC50 [2, 3] is reported as 3.8 mg/L (≈ 10.3 µM).

Compound `O/N=C(\NC1CCCCC1)c1ccnc(Oc2ccc(F)c(Cl)c2)c1` has an IC50 [2, 3] of 3.79 mg/L (≈ 10.4 µM).

`CC1(C)[C@H]2CC[C@@H](CNCc3coc(-c4ccc(F)cc4)n3)[C@@H]1C2` showed an IC50 [2, 3] greater than 5 mg/L.

In the case of `O/N=C(\NC1CCCC1)c1ccc(Oc2ccc(Cl)cc2)nc1`, the IC50 [2, 3] is reported as 1.32 mg/L (≈ 3.98 µM).
